Test results: paper PMC8160210, “Single tryptophan Y160W mutant of homooligomeric E. coli purine nucleoside phosphorylase implies that dimers forming the hexamer are functionally not equivalent” (Scientific Reports, 2021)
Like-named read-outs stand apart in the source and are kept apart here.

What was measured:
Y160W mutant/Pi complex = biological target: T1, Y160W mutant/Pi complex (Escherichia coli, UniProt P0ABP8, Y161W); experiment: Calorimetric (ITC) titrations with formycin A; design: species or system E. coli
T1 construct: made in house; host or cells: E. coli DH5α-T1
Description: (§1) The isothermal titration experiments were performed on the MicroCal iTC200 (Malvern) microcalorimeter. […] All experiments were carried out at 25°C. For the WT protein series of three calorimetric titrations, with protein concentration in the range of 70 to 800 μM, for the Y160W mutant series of four titration with protein concentration in the range of 300 μM to 1.3 mM were performed. Samples of each protein used for these series came from a single preparation. Ligand samples were 8–12 times more concentrated than the protein sample, in order to achieve a diverse ligand/protein molar ratio during titration and thus better explore binding curves. In some ITC experiments, in order to sample the lower plateau region more accurately, several initial points were measured with less ligand volume added at each step than used in the subsequent titration points measurements. An example of the ITC data is shown in the Supplementary Information (Figure S6). Raw thermograms were analysed with NITPIC[43]. Global analysis of titration curves was performed with Sedphat[20],[21].
(§2) Three models were taken into account in analysis of binding curves: model with one (first equation below), two (first two equations) and three binding sites. P+L⇔PLwithKd1PL+L⇔PLLwithKd2PLL+L⇔PLLLwithKd3
(§3) The model with one binding site is based on the assumption that all monomers are equivalent, and there is no cooperation between them. In the model with two binding sites the basic functional unit of the protein is a dimer, possible non-equivalence of binding sites or cooperativity between active sites in the dimer are taken into account (in the case of no cooperativity dissociation constants should be related statistically: Kd2 = 4Kd1), the dimers within hexamer are equivalent. The model with three binding sites is based on the crystallographic structures of binary and ternary complexes of PNP with ligands, where two of the dimers are in the “open-closed” conformation, but the third dimer is symmetrical, in the “open-open” conformation. Thus, active sites in the open conformation belonging to “open-closed” and “open-open” dimer may not be equivalent. This model takes into account possibility of cooperation between all monomers within a hexameric molecule of the protein (in the case of no cooperativity dissociation constants should be related statistically: Kd3 = 9Kd1, Kd2 = 3Kd1).
(§4) Titration series were analysed globally, always starting from the simplest, one-binding-site model. […] For all tested models the Akaike information criterion[23] was also calculated. Generally both criteria used in the discrimination analysis were pointing the same model as best describing the data. The only exception was thermophoretic titration of the WT protein with formycin A, and it is described in details in the Results. Analysed models were fitted to the raw data, whereas graphs presented in this study were prepared from the normalised data and the fitted curves. The parameters of the fit are dissociation constants and responses of the system. Responses are defined as changes in a measured physical quantity related to the formation of subsequent protein–ligand complexes: intrinsic protein fluorescence intensity, fluorescence intensity of the dye, heat and ellipticity for fluorimetric, thermophoretic, calorimetric and CD titrations, respectively. Responses are normalised for the protein concentration present in the titration, thus giving molar coefficients.

WT PNP/Pi complex = biological target: T2, WT PNP/Pi complex (Escherichia coli, UniProt P0ABP8); experiment: Calorimetric (ITC) titrations with formycin A; design: species or system E. coli
T2 construct: made in house
Description: as §1, §2, §3, §4

Y160W PNP mutant [1] = biological target: T3, Y160W PNP mutant (Escherichia coli, UniProt P0ABP8, Y161W); experiment: Thermophoretic (MST) titrations with phosphate; design: made in house; host or cells: E. coli DH5α-T1; species or system E. coli; settings: two-binding-site model, 25 °C
Description: Measurements were performed with Monolith NT115 (NanoTemper). Enzyme was labelled with NT647 fluorescent dye (NanoTemper) according to the protocol provided by the manufacturer. Labelled proteins show fluorescence excitation and emission maxima of approximately 650 and 670 nm, respectively. The series of titrations were performed at a constant protein concentration. Both proteins (WT and mutant), and ligands were dissolved in 50 mM Tris/HCl pH 7.6 buffer, measurements were performed at 25 °C. […] In the pre-experiments, it was carefully checked for both proteins, WT and Y160W mutant whether any sign of aggregation or inactivation occurs, and if mutant behaviour is similar to that of the WT enzyme. […]
For experiments of the binary complex formation with phosphate, curves were measured at four different powers of the heating laser. Two to five titrations at each heating power were measured, and curves were averaged for a particular heating power. […] This is an area inaccessible in fluorescence titration due to the quenching of the protein fluorescence at such a high ionic strength of the solution. […]
Titration series were analysed globally, always starting from the simplest, one-binding-site model. […] For all tested models the Akaike information criterion[23] was also calculated. […]

Y160W PNP mutant [2] = biological target: T3, Y160W PNP mutant; settings: phosphate as variable substrate, 0.4 mM m^7Guo, allostery Eq. (2)
Description: Activity measurements were performed for each protein sample, before and after each experiment as a control of the state of the protein.
The classical Michaelis–Menten equation was fitted to the kinetic curves (i.e. initial rate of the reaction, v0, vs. initial substrate concentration, c0):1 v0c0=Vmax1c0/c0+KM1
Coefficients a and b express the degree of cooperation between the subunits in a dimer, while constants KM1 and Vmax1 characterize the active sites of the enzyme when the neighbouring site is free.
A more complex model was used if there was a statistically significant decrease in the residual sum of squares as judged by the F test at 95% confidence level.

Nc1ncnc2c([C@@H]3O[C@H](CO)[C@@H](O)[C@H]3O)[nH]nc12 [FA, Formycin A]
Kd (Y160W mutant/Pi complex; Kd1 ± SD, three-binding-site model, 50 mM phosphate, pH 7.6, 25 °C): 6.75 µM
Kd (Y160W mutant/Pi complex; Kd3 ± SD, three-binding-site model, 50 mM phosphate, pH 7.6, 25 °C): 655 µM
Kd (Y160W mutant/Pi complex; read-out: Kd2 ± SD, three-binding-site model, 50 mM phosphate, pH 7.6, 25 °C): 149 µM
Kd (WT PNP/Pi complex; Kd1 ± SD, three-binding-site model, 50 mM phosphate, pH 7.6, 25 °C, values to be treated as estimates): 8.9 µM
Kd (WT PNP/Pi complex; Kd3 ± SD, three-binding-site model, 50 mM phosphate, pH 7.6, 25 °C, values to be treated as estimates): 812 µM
Kd (WT PNP/Pi complex; read-out: Kd2 ± SD, three-binding-site model, 50 mM phosphate, pH 7.6, 25 °C, values to be treated as estimates): 55 µM

O=P(O)(O)O [Pi, Orthophosphate]
Kd (Y160W PNP mutant [1]; 50 mM Tris/HCl pH 7.6, read-out: Kd1 ± SD): 3.2 µM
Kd (Y160W PNP mutant [1]; 50 mM Tris/HCl pH 7.6, read-out: Kd3 ± SD): 1280 µM
a (cooperativity coefficient, KM2 = aKM1) (Y160W PNP mutant [2]): 390 ± 122
b (cooperativity coefficient, Vmax2 = bVmax1) (Y160W PNP mutant [2]): 0.94 ± 0.05
Km (Y160W PNP mutant [2]; pH 7.0, 25 °C): 18.7 ± 2.7 µM
Vmax (Y160W PNP mutant [2]; pH 7.0, 25 °C): 11.7 ± 0.4 U/mg
